Series [1] has as its system Aortae abdominalis of male Wister rats. Kind of series: Anti-norepinephrine activity on rat abdominal aorta strip preparations (auto-Magnus apparatus). As to conditions: tension by norepinephrine (10⁻⁷M) regarded as 100. On the procedure:
Aortae abdominalis of male Wister rats (8-12 weeks) were delivered and cut in spiral-shape to be strip preparations. Each test compounds was disolved in DMSO. Then, the solution was diluted with distilled water and prepared to be desired concentration. Using an auto-Magnus apparatus, as to the vasoconstriction after adding norepinephrine, contractive forces were measured under the existence of the test compounds.

In series [2] the test system is platelet aggregation. Briefly: Inhibitory activity on platelet aggregation (turbidimetry). It counts as cell-based, New Zealand White male rabbits. Particulars: for Inhibition rate (%) ADP aggregation: 0.6 µg/mℓ ADP; for Inhibition rate (%) PAF aggregation: 5 x 10⁻⁹M PAF; for Inhibition rate (%) Collagen aggregation: 2 µg/mℓ collagen. On the procedure:
Blood was exsanguinated from New Zealand White male rabbits weighing from 2.5 to 3.0 kg and subjected to the test. Each test compound was dissolved in ethanol and prepared to be 1 x 10⁻⁵, 1 x 10⁻⁶ or 1 x 10⁻⁷M respectively. Each aggregation response was measured by turbidimetry. Concentration of aggregating agent was 2 µg/mℓ of collagen, 0.6 µg/mℓ of adenosine 5'-diphosphate (ADP) or 5 x 10⁻⁹M of platelet aggregating factor (PAF).
(§1) Inhibition rate was calculated by the following formula. [formula]

Series [3] concerns Slc: ddy male mice. Briefly: Activity on stress ulcers (restraint and water immersion). As to conditions: length of ulcer in glandular stomach; 30 mg/kg orally; restrained and immersed in water of 23°C for 7 hours. Type of series: in vivo. As to the method:
In each group, 5 Slc: ddy male mice (6 weeks) were employed. Each test compound was kneaded with Tween-80 followed by adding a 0.5 % solution of gum arabic to prepare 30 mg/10 mℓ solution (solution containing 1.5 % Tween-80 and 0.5 % gum arabic). Then, the preparation was administered orally in a rate of 30 mg/kg. After the administration, the mice were restrained and immersed in a water tank of 23°C for 7 hours. Then, length of the ulcer in the glandular stomach was measured by a stereoscopic microscope (x 10).

The nature of series [4]: Acute toxicity. It counts as in vivo, mice. Particulars: mouse, in vivo; oral administration, death rate after 7 days; read-out: LD₅₀. As to the method: In each group, 6 Slc: ddy male mice weighing 25 to 29 g (6 weeks) were employed. Each compound was administered orally thereto and a value of acute toxicity was evaluated with death rate after 7 days.
The subject of series [5] is Slc-ddy male mice. Briefly: Activity on hypoxia induced in decapitation of mice (gasping time). As to conditions: gasping time after decapitation, one hour after oral administration. Also noted: dose or concentration left out as unconfirmed. It counts as in vivo. As to the method: In each group, 3 Slc-ddy male mice (4 weeks) were employed. Each test compound was suspended or dissolved in a 0.5 % methyl cellulose solution. After the concentration was adjusted, the dose became […], the solution was administered orally. One hour after the administration, mice were decapitated and gasping time was measured.
as §1

Molecules are shown by their SMILES.

`C#Cc1cccc(C2C(C(=O)Nc3ccc(C4=NNC(=O)CC4)cc3)=C(C)NC(N)=C2C(=O)OCC)c1` (centres unmarked) [Compound 12, 2-amino-3-ethoxycarbonyl-4-(3-ethynylphenyl)-6-methyl-5-{4-(6-oxo-1,4,5,6-tetrahydropyridazinon-3-yl)phenyl)aminocarbonyl-1,4-dihydropyridine]: the results for the Contractive force in series [1] (compound 10⁻⁷ M), in series [1] (compound 10⁻⁸ M) and in series [1] (compound 10⁻⁹ M) were 10.3, 69.4 and 90.2, respectively. Moreover, the “Inhibition rate (%) ADP aggregation” value is 96% in series [2] (compound 10⁻⁵ M), 81% in series [2] (compound 10⁻⁶ M) and 35% in series [2] (compound 10⁻⁷ M). Further, the “Inhibition rate (%) PAF aggregation” value in series [2] (compound 10⁻⁵ M) is on record as 72%. The “Inhibition rate (%) Collagen aggregation” value worked out at 96% in series [2] (compound 10⁻⁶ M) and 33% in series [2] (compound 10⁻⁷ M). For the same compound, the “Inhibition rate (%)” value in series [3] is recorded as 98.7%; in series [5], 30.2%. Also, in series [4], the LD50 at 168 h was 1200 mg/kg.

Take `CCOC(=O)C1=C(C)NC(C)=C(C(=O)Nc2ccc(C3=NNC(=O)CC3)cc2)C1c1cc(C#CC(C)(C)O)ccc1OC` (centres unmarked) [Compound 17, 2,6-dimethyl-4-{3-(3-hydroxy-3-methyl)-1-butyn-1-yl-6-methoxy}phenyl-3-ethoxycarbonyl-5-{4-(6-oxo-1,4,5,6-tetrahydropyridazinon-3-yl)phenyl}aminocarbonyl-1,4-dihydropyridine]: the results for the Contractive force in series [1] (compound 10⁻⁷ M), in series [1] (compound 10⁻⁸ M) and in series [1] (compound 10⁻⁹ M) were 8.9, 70.1 and 87.7, respectively. In addition, the entries for the “Inhibition rate (%) ADP aggregation” value in series [2] (compound 10⁻⁵ M), in series [2] (compound 10⁻⁶ M) and in series [2] (compound 10⁻⁷ M) were 82%, 62% and 18%, respectively. The “Inhibition rate (%) PAF aggregation” value in series [2] (compound 10⁻⁵ M) came out at 49%. For the same compound, the figures for the “Inhibition rate (%) Collagen aggregation” value in series [2] (compound 10⁻⁶ M) and in series [2] (compound 10⁻⁷ M) were 100% and 30%, respectively. Moreover, the figures for the “Inhibition rate (%)” value in series [3] and in series [5] were 79.3% and 25.8%, respectively. In series [4], the LD50 at 168 h was 1000 mg/kg.

For `CCOC(=O)C1=C(N)NC(C)=C(C(=O)Nc2ccc(C3=NNC(=O)CC3)cc2)C1c1cccc(C#CC(C)(C)O)c1` (centres unmarked) [Compound 24, 2-amino-4-{3-(3-hydroxy-3-methyl)-1-butyn-1-yl}phenyl-3-ethoxycarbonyl-6-methyl-5-{4-(6-oxo-1,4,5,6-tetrahydropyridazinon-3-yl)phenyl}aminocarbonyl-1,4-dihydropyridine], the Contractive force was found to be 11.1 in series [1] (compound 10⁻⁷ M), 72.4 in series [1] (compound 10⁻⁸ M) and 88.8 in series [1] (compound 10⁻⁹ M). Besides, the “Inhibition rate (%) ADP aggregation” value in series [2] (compound 10⁻⁵ M) worked out at 92%; in series [2] (compound 10⁻⁶ M) it was 70%; in series [2] (compound 10⁻⁷ M), 27%. Besides, the “Inhibition rate (%) PAF aggregation” value in series [2] (compound 10⁻⁵ M) is on record as 60%. Also, the “Inhibition rate (%) Collagen aggregation” value in series [2] (compound 10⁻⁶ M) was 90%; in series [2] (compound 10⁻⁷ M) it was 29%. Moreover, the LD50 at 168 h in series [4] was found to be 1100 mg/kg. Also, in series [5], the “Inhibition rate (%)” value is 24.2%.

Turning to `C#Cc1cccc(C2C(C(=O)Nc3ccc(C4=NNC(=O)CC4CC)cc3)=C(C)NC(N)=C2C(=O)OCCOC)c1` (centres unmarked) [Compound 25, 2-amino-4-(3-ethynylphenyl)-3-methoxyethoxycarbonyl-6-methyl-5-{4-(4-ethyl-6-oxo-1,4,5,6-tetrahydropyridazinon-3-yl)phenyl}aminocarbonyl-1,4-dihydropyridine], the values for the Contractive force in series [1] (compound 10⁻⁷ M), in series [1] (compound 10⁻⁸ M) and in series [1] (compound 10⁻⁹ M) were 12.1, 70.9 and 91.5, respectively. Moreover, the “Inhibition rate (%) ADP aggregation” value was found to be 90% in series [2] (compound 10⁻⁵ M), 69% in series [2] (compound 10⁻⁶ M) and 29% in series [2] (compound 10⁻⁷ M). Further, the “Inhibition rate (%) PAF aggregation” value in series [2] (compound 10⁻⁵ M) was found to be 62%. Also, the figures for the “Inhibition rate (%) Collagen aggregation” value in series [2] (compound 10⁻⁶ M) and in series [2] (compound 10⁻⁷ M) were 91% and 30%, respectively. The figures for the “Inhibition rate (%)” value in series [3] and in series [5] were 94.3% and 28.3%, respectively. Also, the LD50 at 168 h in series [4] was determined as 1000 mg/kg.

For the origin of these results see patent publication EP0503079A1, “PYRIDAZINONE-SUBSTITUTED ETHYNYLPHENYL DERIVATIVE AND REMEDY FOR CIRCULATORY ORGAN DISEASE CONTAINING THE SAME AS ACTIVE INGREDIENT” (KAKEN PHARMACEUTICAL CO., LTD., priority 1990, dated 1992).
